# US10314313B2, “Antimicrobial materials exhibiting synergistic efficacy” (CORNING INCORPORATED, priority 2015, dated 2019)
# Experiments:
# mold = experiment: Amount of biocide necessary to inhibit fungi growth, mold (FIG. 1); format: cell-based
# Protocol: (§1) The amount of ZnPT and copper-containing glass necessary to inhibit fungi growth was evaluated.
# mildew = experiment: Amount of biocide necessary to inhibit fungi growth, mildew (FIG. 2); format: cell-based
# Protocol: as §1
# fungi = conditions: alone
# algae = conditions: in combination with Cu; cited from earlier work
# marine organisms = conditions: cited from earlier work
# bacteria = conditions: cited from earlier work
compound,measurement,setting,value
Zinc pyrithione [ZnPT],amount needed to reduce mold growth,mold,10 g/gallon
same,amount needed to reduce mildew growth,mildew,100 g/gallon
same,inhibition of fungi,fungi,no inhibition of fungi
same,"algaecide activity, concentration range",algae,1-100 ppm (μg/L)
[O-][n+]1ccccc1[S][Cu][S]c1cccc[n+]1[O-] [CuPT],toxicity to marine organisms,marine organisms,more toxic than ZnPT
"N#Cc1c(-c2ccc(Cl)cc2)[nH]c(C(F)(F)F)c1Br [Tralopyril, 4-bromo-2-(4-chlorophenyl)-5-(trifluoromethyl)-1H-pyrrole-3-carbonitrile]",activity against bacteria,bacteria,not sufficient
